These are literature values, as cited in article PMC12120261, “Responsiveness of different MET tumour alterations to type I and type II MET inhibitors” (Clinical and Translational Medicine, 2025).

The subject of this series is MET G1163R. Set-up: method as in PMID 31279006.
Take `CNC(=O)c1ccc(-c2cnc3ncc(Cc4ccc5ncccc5c4)n3n2)cc1F` [capmatinib]: the “sensitivity of the solvent front G1163R mutation” value (“sensitivity” below) is recorded as “remains sensitive”.

Regarding `C[C@@H](Oc1cc(-c2cnn(C3CCNCC3)c2)cnc1N)c1c(Cl)ccc(F)c1Cl` [crizotinib, Crizotinib], the “sensitivity” value is on record as “conferring resistance”.

On to `C[C@@H](c1ccc2nccn2c1)n1nnc2ncc(-c3cnn(C)c3)nc21` [savolitinib], for which the “sensitivity” value is on record as “remains sensitive”.
